The nature of series [1]: refractive index (Na D-line) (dimensionless). To be noted: 298.2 K; 101.33 kPa; Liquid; Standard Abbe refractometry.
The conditions of series [2]: Liquid; for mass density: 298.2 K, 101.33 kPa.

Results on two compounds are retold here after the NIST ThermoML archive (doi:10.1016/j.jct.2005.03.003).

SMILES strings stand for the structures. ± gives the expanded uncertainty stated by the source.

Turning to `CCCCOC(=O)c1ccccc1C(=O)OCCCC` [dibutyl phthalate], the refractive index – broadly, a measure of how strongly the sample bends light – in series [1] came to 1.4906 ± 0.0013. Besides, in series [2] (Vibrating tube method), the mass density (usually the mass of a sample divided by its volume) is listed as 1050.13 ± 1.4 kg/m3. In addition, the Normal boiling temperature in series [2] (Fischer boiling point apparatus) was 340.1 ± 0.2 °C.
On to `CC(=O)O` [acetic acid], for which, in series [1], the refractive index stood at 1.3715 ± 0.0012. Besides, the mass density in series [2] is reported as 1049.44 ± 3 kg/m3. For the same compound, in series [2] (Fischer boiling point apparatus:FP), the Normal boiling temperature came out at 118.1 ± 0.2 °C.
